The test system of one assay is L1210T cells. The experiment in a line: Growth of L1210T cells (L1210 bearing human ALDH1 cDNA). In kind it is cell-based, mouse. Particulars: 50% inhibition of growth. The method, then: (§1) The cells used correspond to various cell lines: human lung normal embryonic fibroblasts (MRC5), mouse melanoma cells (B16), mouse lymphocytic leukaemia cells (L1210) and L1210T cells obtained by infecting L1210 cells with a retroviral vector bearing human ALDH1 cDNA.
The procedure used for the tests on the L1210 cells is as follows: • 10^5 cells are incubated in the various wells of a microplate in 1 ml of culture medium. After incubating for 4 hours, the test compounds are added to the wells containing the L1210 cells.
For the L1210 cells, the growth is measured by counting the viable cells in the presence of 0.1% Trypan blue.
(§2) The IC50 concentration is the concentration corresponding to a 50% inhibition of growth of the cells.

In the next assay the test system is bcl2 H16 cells. Briefly: DNA fragmentation of bcl2 H16 cells, 6 h incubation. The format is cell-based, mouse. On the procedure: (§3) The BAF3-bcl2 cells correspond to BAF3 cells (mouse lymphocyte cells) tranfected with the bcl2 gene. Among these cells, four lines known as H16, G18, B14 and G21 overexpress the bcl2 gene.
(§4) The procedure which was used is as follows: • The BAF3-b0 or BAF3-bcl2 cells, cultured in the presence of IL3, were labelled by a method adapted from that disclosed in Wright, S. et al., J. of Cell. Biochem. 48, 344-355, (1992).
(§5) 10^5 cells/ml were incubated with 4.62 KBq.ml^−1 [^3H]-thymidine for 40 hours at 37° C. After two washes with culture medium, 2.5×10^6 cells were cultured in the presence of the test compound.
(§6) After incubating for 24 hours, these cells were recovered by centrifugation at 400×g for 5 minutes and washed 3 times with PBS buffer. The cells recovered in the pellet were lysed in 2 ml of 0.1% Triton X-100, 20 mM EDTA, 5 mM Tris pH 8 and centrifuged at 30 000×g at 4° C. for 30 minutes.
(§7) The supernatants were recovered and the pellets dissolved in 0.3 ml of 0.5N NaOH.
(§8) Aliquots of the culture medium (1 ml), of the supernatant (0.3 ml) and of the dissolved pellet (0.1 ml) were assayed in a scintillation counter.
(§9) The percentage of DNA fragments is calculated in the following way:
(§10) The percentage of fragmentation of the DNA is a direct measure of the apoptosis which the cells have undergone.
The procedure for the test given in Table 4 below is identical to the previous procedure except that the incubation time is 6 hours instead of 24 hours: […]

The next assay has as its system BAF3-bcl2 H16 cells. The experiment in a line: Apoptosis induction (DNA fragmentation) in BAF3-bcl2 clone H16, 24 h. The format is cell-based, mouse. On the procedure:
as §3
Whereas the BAF3-b0 cells undergo apoptosis (more than 80% of the cells) in the absence of interleukin 3 (IL3) in 16 hours [according to Collins, M. K. L., Marvel, J., Malde, P. & Lopez-Rivas, A., J. Exp. Med. 176, 1043-1051, (1992)], the BAF3-bcl2 cells show no sign of apoptosis in the absence of IL3. They are thus apoptosis-resistant.
as §4, §5, §6, §7, §8, §9, §10

For a further assay, the system named is B16 cells. Briefly: Growth of B16 cells (protein and DNA assay). The format is cell-based, mouse. The settings on record: 50% inhibition of growth. The method, then: as §1
The procedure used for the tests on the B16 and MRC5 cells is as follows: • The test compounds are added 4 hours after placing the cells in the wells. After 72 hours, the cells are removed at different times. The B16 and MRC5 cells are washed twice with PBS and recovered directly with 0.1M sodium chloride.
The effect on the growth of the B16 and MRC5 cells is measured by protein assay according to the Lowry method (Lowry, O. H., Rosenbrough, N. J., Farr, A. L. and Randall, J. Biol. Chem. 193, 265-275, (1951)) and DNA assay by the Hoechst method (West, D. C., Sattar, A. and Kumar, S., Anal. Biochem. 147, 289-295, (1985)).
as §2

Assay [1] deals with DU145 cells. Briefly: Combination of Example 1 and Metmetlico on the growth of DU145 cells. The format is cell-based, human. On the procedure: The cells used correspond to metastatic cells of human prostate cancer DU145. 10^5 DU145 cells are incubated in the various wells of a microplate in 1 ml of culture medium. The test compounds are added 4 hours after placing the cells in the wells. After 72 hours, the cells are removed at different times. The cells are washed twice with PBS and recovered directly with 0.1M sodium chloride. The effect on the growth of DU145 cells is measured by protein assay according to the Lowry method (Lowry, O. H., Rosenbrough, […]. and Randall, J. Biol. Chem. 193, 265-275, (1951)) and DNA assay by the Hoechst method (West, […]. and Kumar, S., Anal. Biochem. 147, 289-295, (1985)). The test compounds are the compound of Example 1, metmetlico and a mixture thereof.

Assay [2] concerns DU145 cells. The experiment in a line: Growth of DU145 cells (protein and DNA assay, 72 h). Particulars: 50% inhibition of cell growth. The format is cell-based, human. The method, then:
The cells used correspond to two cell lines: metastatic cells of human prostate cancer (DU145) and murine lymphoid cells transfected with the human bcl2 gene (BAF3 bcl2).
The procedure used for the tests on DU145 is as follows: • 10^5 cells are incubated in the various wells of a microplate in 1 ml of culture medium.
The compounds are added 4 hours after placing the cells in the wells.
After 72 hours, the cells are removed at different times. The DU145 cells are washed twice with PBS and recovered directly with 0.1M sodium chloride.
The effect on the growth of the DU145 cells is measured by protein assay according to the Lowry method (Lowry, O. H., Rosenbrough, N. J., Farr, A. L. and Randall, J. Biol. Chem. 193, 265-275, (1951)) and DNA assay by the Hoechst method (West, D. C., Sattar, A. and Kumar, S., Anal. Biochem. 147, 289-295, (1985)).
The IC50 concentration is the concentration corresponding to a 50% inhibition of cell growth.

In another assay the test system is R7 cells. Briefly: Growth of R7 cells which overexpress the MDR gene. In kind it is cell-based. The settings on record: increasing concentrations, 72 h, FIGS. 7 and 8. The method, then: 10^5 cells were incubated in the various wells of a microplate in 1 ml of culture medium. These are R7 cells, on the one hand, and K562 cells, on the other hand.
After incubating for 4 hours, the test compound (compound of Example 1 according to the invention, on the one hand, and daunorubicin, on the other hand) was added to the wells containing the cells.
After 72 hours, the cells were collected at different times.
The growth of the cells was measured by counting the viable cells in the presence of 0.1% Trypan blue.
FIGS. 7 and 8 respectively represent the percentage inhibition (I %) by daunorubicin and the compound of Example 1 on the growth of the R7 and K562 cells, obtained at increasing concentrations C. The results obtained with the K562 cells are symbolized by ♦ and those obtained with the R7 cells are symbolized by ▴.

Structures are written as SMILES.

Consider 1 compound from US8026231B2, “Aminothiolester compounds, pharmaceutical and cosmetic compositions containing same and uses thereof” (CNRS, priority 2000, dated 2011).

Turning to `CSC(=O)C#CC(C)(C)N(C)C` [Example 1, S-methyl 4-dimethyl-amino-4-methyl-2-pentynethioate], the figures for the IC50 in the assay with L1210T cells, in the assay on B16 cells and in the assay with DU145 cells [2] were 1.6 µM, 0.8 µM and 5.9 µM, respectively. Moreover, the “% fragmentation of the DNA of the bcl2 H16 cells” value in the assay with bcl2 H16 cells (50 μM) is 2.15%; in the assay with bcl2 H16 cells (100 μM), 0%; in the assay with bcl2 H16 cells (200 μM) it was 30.4%; in the assay with bcl2 H16 cells (400 μM), 83.8%; with bcl2 H16 cells (600 μM) it was 81.5%. Also, the “DNA fragmentation (%)” value in the assay on BAF3-bcl2 H16 cells (H16, 1 μM) amounted to 2.9%; with BAF3-bcl2 H16 cells (H16, 2 μM), 6.3%; in the assay on BAF3-bcl2 H16 cells (H16, 4 μM) it was 65.3%; with BAF3-bcl2 H16 cells (H16, 8 μM), 94.2%. In addition, the “% Inhibition of growth of the DU145 cells” value in the assay with DU145 cells [1] (2 μM) was found to be 5.8%; with DU145 cells [1] (3 μM) it was 16.1%; in the assay with DU145 cells [1] (4 μM), 22.4%. In the assay on R7 cells, the “Inhibition of the growth of the R7 cells” value is on record as “very strongly inhibits the growth of the R7 cells”.
